According to patent US7297344B1, “Preparations for the promotion of wound healing in the upper respiratory tract and/or ear” (priority 1999, dated 2007):

Tested on: Human ciliated epithelium cells
Assay: in-vitro ciliary vibration (ciliary activity) test
Type: cell-based
Protocol: The corresponding cells were exposed and incubated with 100 μl test substance at a temperature of 37° C.

N=C(NCCCCCCNC(=N)NC(=N)Nc1ccc(Cl)cc1)NC(=N)Nc1ccc(Cl)cc1 [chlorohexidine]
ciliary activity / ciliary vibration: decrease of the measured ciliary vibration
